Where “and” joins values, the source holds several entries; their conditions need not be identical. Equal entries are not always repeated.
Columns and labels:
[1] = tested on: Staphylococcus epidermidis strains; assay: Antibacterial activity of AMPs (MIC100) and synergism (FIC index); type: cell-based; settings: against Staphylococcus epidermidis strains, single agent
Protocol: (§1) Antibacterial activity of the peptides used in this work was evaluated as described previously. […] The fractional inhibitory concentration (FIC) index for combinations of two peptides was calculated according to the equation: FIC index = […] = A/MICA + B/MICB , where A and B are the MICs of drug A and drug B in the combination, MICA and MICB are the MICs of drug A and drug B alone, and FICA and FICB are the FICs of drug A and drug B. The FIC indices were interpreted as follows: ≤0.5, synergy; 0.51-4.0, no interaction; > 4.0, antagonism.

[2] = tested on: Staphylococcus epidermidis strains; assay: % inhibition of bacterial growth by the MIX and its components; type: cell-based; settings: MIX = both
Protocol: as §1, with “antagonism. The growth inhibition percentages of Staphylococcus epidermidis and probiotic strains were assessed under the same conditions.” for “antagonism.”

J774 cells = assay: Nitrite (NO2-) formation in J774 cells, Griess reaction; type: cell-based, mouse

Substance: KKYLLPI VGNLLKSLL-NH2 [TB-KK, analogue of the temporin B]
- MIC100 ([1]; 10^5 CFU/well): 7 µg/mL
- MIC ([1]; value in brackets): 3 µM
- % inhibition of bacterial growth ([2]; strain 2/2, RJI-C 9 μg/ml, TB-KK 6 μg/ml): 23 ± 0.5%
- % inhibition of bacterial growth ([2]; strain 3/28, RJI-C 9 μg/ml (7.3 μM), TB-KK 6 μg/ml (2.6 μM)): 19 ± 2%
- % inhibition of bacterial growth ([2]; strain 5/6, RJI-C 9 μg/ml, TB-KK 6 μg/ml): 10 ± 1%
- % inhibition of bacterial growth ([2]; strain 5/8, RJI-C 9 μg/ml, TB-KK 6 μg/ml): 21 ± 2%
- % inhibition of bacterial growth ([2]; strain 5/25, RJI-C 9 μg/ml, TB-KK 6 μg/ml): 21 ± 1%
- % inhibition of bacterial growth ([2]; strain 9/1, RJI-C 9 μg/ml, TB-KK 6 μg/ml): 26 ± 2%
- % inhibition of bacterial growth ([2]; strain 10/28, RJI-C 9 μg/ml, TB-KK 6 μg/ml): 4 ± 1%
- % inhibition of bacterial growth ([2]; strain 12/14, RJI-C 9 μg/ml, TB-KK 6 μg/ml): 20 ± 3%
- % inhibition of bacterial growth ([2]; strain 12/26, RJI-C 9 μg/ml, TB-KK 6 μg/ml): 14 ± 2%
- NO2- production of J774 cells (J774 cells): 0.82 ± 0.05 μmol/10^6 cells and 1.25 ± 0.2 μmol/10^6 cells and 1.34 ± 0.2 μmol/10^6 cells
- NO2- synthesis in LPS-stimulated J774 cells, in words (J774 cells): reduced NO2^- synthesis
